In PubChem BioAssay AID330 (DTP/NCI, 2004) one finds T/C data, which are given here for 22 compounds.

Several values for one entry are separate records, joined by “and”; a condition that tells them apart may be missing. Identical values can stand only once. Toxic doses and inconclusive results are not listed.

The test system of this test is P388 leukemia ip, CD2F1 mice, survival T/C. As to the kind of experiment: NCI In Vivo Anticancer Drug Screen. Data for tumor model P388 Leukemia (intraperitoneal) in CD2F1 (CDF1) mice. The note with it: endpoint: median survival time, higher = longer survival. Put shortly:
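Mice carrying the transplanted tumor received test compound or vehicle. Survival was recorded in each group, and the value is the treated-group measurement divided by that of the vehicle-treated control group.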

The mark [1] stands for this setting: dose: 100.0 mg/kg/injection, schedule: Q01DX001 (ip), vehicle: Klucel (hydroxypropylcellulose) (HPC).
Where [2] appears, read: dose: 12.5 mg/kg/injection, schedule: Q01DX009 (ip), vehicle: saline with Tween-80.
Where [3] appears, read: dose: 25.0 mg/kg/injection, schedule: Q01DX009 (ip), vehicle: saline with Tween-80.
The mark [4] stands for this setting: dose: 50.0 mg/kg/injection, schedule: Q01DX009 (ip), vehicle: saline with Tween-80.
The mark [5] stands for this setting: dose: 12.5 mg/kg/injection, schedule: Q01DX009 (ip), vehicle: Klucel (hydroxypropylcellulose) (HPC).
Where [6] appears, read: dose: 25.0 mg/kg/injection, schedule: Q01DX009 (ip), vehicle: Klucel (hydroxypropylcellulose) (HPC).
Setting [7] is: dose: 50.0 mg/kg/injection, schedule: Q01DX009 (ip), vehicle: Klucel (hydroxypropylcellulose) (HPC).
Setting [8] is: dose: 60.0 mg/kg/injection, schedule: Q01DX005 (ip), vehicle: saline with Tween-80.

As for `CC(=O)N1C(=O)Cc2ccccc21`, the T/C is, setting by setting: under setting [1], 94 % of control; (dose: 200.0 mg/kg/injection, schedule: Q01DX001 (ip), vehicle: Klucel (hydroxypropylcellulose) (HPC)) 90 % of control; (dose: 400.0 mg/kg/injection, schedule: Q01DX001 (ip), vehicle: Klucel (hydroxypropylcellulose) (HPC)) 91 % of control.

Consider `O=C(O)COc1ccc(-c2ccc(Br)cc2)cc1`, for which the T/C under setting [2] is 91 % of control, the T/C under setting [3] was 97 % of control and the T/C under setting [4] was 103 % of control.

In the case of `ClC(Cl)Oc1ccccc1`, the T/C was 97 % of control (dose: 10.0 mg/kg/injection, schedule: Q01DX009 (ip), vehicle: saline with Tween-80); 106 % of control (dose: 20.0 mg/kg/injection, schedule: Q01DX009 (ip), vehicle: saline with Tween-80); 103 % of control (dose: 40.0 mg/kg/injection, schedule: Q01DX009 (ip), vehicle: saline with Tween-80).

With `FC(F)(F)C1(C(F)(F)F)O[Te]2(OC1(C(F)(F)F)C(F)(F)F)OC(C(F)(F)F)(C(F)(F)F)C(C(F)(F)F)(C(F)(F)F)O2`, the T/C (dose: 6.25 mg/kg/injection, schedule: Q01DX005 (ip), vehicle: Klucel (hydroxypropylcellulose) (HPC)) was 100 % of control and the T/C (dose: 12.5 mg/kg/injection, schedule: Q01DX005 (ip), vehicle: Klucel (hydroxypropylcellulose) (HPC)) is 112 % of control.

For `CC(N)C(=O)OCN1C(=O)C2C3C=CC(C2C1=O)C1C(=O)N(COC(=O)C(C)N)C(=O)C31` (centres undefined), the T/C is, setting by setting: (dose: 25.0 mg/kg/injection, schedule: Q01DX009 (ip), vehicle: water) 100 % of control; (dose: 50.0 mg/kg/injection, schedule: Q01DX009 (ip), vehicle: water) 100 % of control; (dose: 100.0 mg/kg/injection, schedule: Q01DX009 (ip), vehicle: water) 112 % of control; (dose: 200.0 mg/kg/injection, schedule: Q01DX009 (ip), vehicle: water) 121 % of control.

Consider `NP(=O)(Oc1ccccc1)Oc1ccccc1`, for which the T/C runs as follows: (dose: 6.23 mg/kg/injection, schedule: Q01DX009 (ip), vehicle: saline with Tween-80) 95 % of control; under setting [2], 100 % of control; under setting [3], 95 % of control.

For `Cc1nc2sccn2c1C=O`, the T/C runs as follows: under setting [5], 109 % of control; under setting [6], 114 % of control; under setting [7], 114 % of control; under setting [1], 97 % of control.

Regarding `Cc1cc[n+](C2=C(Nc3c(C)cccc3C)C(=O)c3ccccc3C2=O)cc1`, the T/C was 102 % of control under setting [8]; 102 % of control (dose: 120.0 mg/kg/injection, schedule: Q01DX005 (ip), vehicle: saline with Tween-80); 114 % of control (dose: 240.0 mg/kg/injection, schedule: Q01DX005 (ip), vehicle: saline with Tween-80).

`CC(=O)NCCNC(Cc1ccccc1)C(=O)O` (centres undefined): the T/C (dose: 25.0 mg/kg/injection, schedule: Q01DX001 (ip), vehicle: Klucel (hydroxypropylcellulose) (HPC)) was 108 % of control; the T/C (dose: 50.0 mg/kg/injection, schedule: Q01DX001 (ip), vehicle: Klucel (hydroxypropylcellulose) (HPC)) is 101 % of control; the T/C under setting [1] was 100 % of control and 101 % of control.

On to `COc1cc2c(cc1OC)C13CCN4CC5=CCOC(CC(=O)O)C(C5CC41)C3N2` (centres undefined), for which the T/C (dose: 15.0 mg/kg/injection, schedule: Q01DX005 (ip), vehicle: saline) was 100 % of control; the T/C (dose: 30.0 mg/kg/injection, schedule: Q01DX005 (ip), vehicle: saline) was 96 % of control; the T/C under setting [8] was 99 % of control; the T/C (dose: 60.0 mg/kg/injection, schedule: Q01DX005 (ip), vehicle: saline) was 94 % of control and 93 % of control; the T/C (dose: 120.0 mg/kg/injection, schedule: Q01DX005 (ip), vehicle: saline) is 96 % of control.

Regarding `C1=C(c2ccccc2)CC2CCC1N2Cc1ccccc1` (centres undefined), the T/C is, setting by setting: (dose: 12.5 mg/kg/injection, schedule: Q01DX005 (ip), vehicle: saline with Tween-80) 99 % of control; (dose: 25.0 mg/kg/injection, schedule: Q01DX005 (ip), vehicle: saline with Tween-80) 103 % of control; (dose: 50.0 mg/kg/injection, schedule: Q01DX005 (ip), vehicle: saline with Tween-80) 101 % of control and 103 % of control.

Take `CC(=O)NC1C(OC(C)=O)OC(CS[As](C)C)C(OC(C)=O)C1OC(C)=O` (centres undefined): the T/C under setting [3] is 118 % of control and the T/C under setting [4] was 111 % of control.

Take `OCC1OC2OCCOC2OC1CO` (centres undefined): the T/C (dose: 100.0 mg/kg/injection, schedule: Q01DX001 (ip), vehicle: saline) was 102 % of control; the T/C (dose: 200.0 mg/kg/injection, schedule: Q01DX001 (ip), vehicle: saline) was 96 % of control; the T/C (dose: 400.0 mg/kg/injection, schedule: Q01DX001 (ip), vehicle: saline) was 102 % of control.

Turning to `Cc1cc(=S)c2cc3c(cc2[nH]1)OCO3`, the T/C (dose: 50.0 mg/kg/injection, schedule: Q01DX005 (ip), vehicle: Klucel (hydroxypropylcellulose) (HPC)) is 107 % of control; the T/C (dose: 100.0 mg/kg/injection, schedule: Q01DX005 (ip), vehicle: Klucel (hydroxypropylcellulose) (HPC)) is 101 % of control; the T/C (dose: 200.0 mg/kg/injection, schedule: Q01DX005 (ip), vehicle: Klucel (hydroxypropylcellulose) (HPC)) is 103 % of control.

On to `CCCC[N+]1(CC)CCCCC1`, for which the T/C by setting is: (dose: 3.12 mg/kg/injection, schedule: Q01DX009 (ip), vehicle: saline) 97 % of control; (dose: 6.25 mg/kg/injection, schedule: Q01DX009 (ip), vehicle: saline) 113 % of control; (dose: 12.5 mg/kg/injection, schedule: Q01DX009 (ip), vehicle: saline) 106 % of control.

For the compound `COc1cc(N)ccc1Nc1c2ccccc2nc2ccccc12`, the T/C reads like this: (dose: 12.5 mg/kg/injection, schedule: Q04DX002 (ip), vehicle: distilled water + Tween-80) 117 % of control; (dose: 50.0 mg/kg/injection, schedule: Q04DX002 (ip), vehicle: distilled water + Tween-80) 165 % of control; (dose: 100.0 mg/kg/injection, schedule: Q04DX002 (ip), vehicle: distilled water + Tween-80) 166 % of control and 185 % of control; (dose: 200.0 mg/kg/injection, schedule: Q04DX002 (ip), vehicle: distilled water + Tween-80) 194 % of control.

As for `C=CCOc1ccc2ccc(=O)oc2c1`, the T/C is 109 % of control (dose: 50.0 mg/kg/injection, schedule: Q04DX003 (ip), vehicle: saline with Tween-80); 104 % of control (dose: 100.0 mg/kg/injection, schedule: Q04DX003 (ip), vehicle: saline with Tween-80); 101 % of control (dose: 200.0 mg/kg/injection, schedule: Q04DX003 (ip), vehicle: saline with Tween-80).

Consider `Cc1oc(NCc2ccccc2)c(C#N)c1C`, for which the T/C runs as follows: (dose: 50.0 mg/kg/injection, schedule: Q01DX009 (ip), vehicle: saline + alcohol) 105 % of control; (dose: 100.0 mg/kg/injection, schedule: Q01DX009 (ip), vehicle: saline + alcohol) 90 % of control; (dose: 200.0 mg/kg/injection, schedule: Q01DX009 (ip), vehicle: saline + alcohol) 91 % of control.

In the case of `CC(=O)OCc1ccc2ccccc2c1`, the T/C was 100 % of control (dose: 100.0 mg/kg/injection, schedule: Q01DX009 (ip), vehicle: saline sonified); 100 % of control (dose: 200.0 mg/kg/injection, schedule: Q01DX009 (ip), vehicle: saline sonified); 100 % of control (dose: 400.0 mg/kg/injection, schedule: Q01DX009 (ip), vehicle: saline sonified).

On to `COC(=O)c1cc(OC(C)=O)c2cc3c(cc2c1-c1cc(OC)c(OC)c(OC)c1)OCO3`, for which the T/C (dose: 100.0 mg/kg/injection, schedule: Q04DX003 (ip), vehicle: Klucel (hydroxypropylcellulose) (HPC)) was 93 % of control and the T/C (dose: 200.0 mg/kg/injection, schedule: Q04DX003 (ip), vehicle: Klucel (hydroxypropylcellulose) (HPC)) is 89 % of control.

On to `CCOC(=O)C1(C(=O)OCC)COC(C)(C)OC1`, for which the T/C reads like this: under setting [2], 105 % of control; under setting [3], 101 % of control and 97 % of control; under setting [4], 102 % of control and 106 % of control; (dose: 100.0 mg/kg/injection, schedule: Q01DX009 (ip), vehicle: saline with Tween-80) 106 % of control and 108 % of control; (dose: 100.0 mg/kg/injection, schedule: Q04DX003 (ip), vehicle: saline) 100 % of control; (dose: 200.0 mg/kg/injection, schedule: Q01DX009 (ip), vehicle: saline with Tween-80) 98 % of control and 103 % of control. Further, the T/C by setting is: (dose: 200.0 mg/kg/injection, schedule: Q04DX003 (ip), vehicle: saline) 101 % of control; (dose: 400.0 mg/kg/injection, schedule: Q04DX003 (ip), vehicle: saline) 100 % of control; (dose: 600.0 mg/kg/injection, schedule: Q04DX003 (ip), vehicle: saline) 101 % of control.

As to `CN(C/C=C/CN(C)N=O)N=O`, the T/C reads like this: under setting [5], 116 % of control; under setting [6], 118 % of control; under setting [7], 96 % of control.
